Results on 35 compounds are retold here after patent publication US6472418B1, “Non-peptide NK1 receptors antagonists” (Warner-Lambert Company, priority 1998, dated 2002).

SMILES strings stand for the structures.

T1 sequence (P25103 whole entry): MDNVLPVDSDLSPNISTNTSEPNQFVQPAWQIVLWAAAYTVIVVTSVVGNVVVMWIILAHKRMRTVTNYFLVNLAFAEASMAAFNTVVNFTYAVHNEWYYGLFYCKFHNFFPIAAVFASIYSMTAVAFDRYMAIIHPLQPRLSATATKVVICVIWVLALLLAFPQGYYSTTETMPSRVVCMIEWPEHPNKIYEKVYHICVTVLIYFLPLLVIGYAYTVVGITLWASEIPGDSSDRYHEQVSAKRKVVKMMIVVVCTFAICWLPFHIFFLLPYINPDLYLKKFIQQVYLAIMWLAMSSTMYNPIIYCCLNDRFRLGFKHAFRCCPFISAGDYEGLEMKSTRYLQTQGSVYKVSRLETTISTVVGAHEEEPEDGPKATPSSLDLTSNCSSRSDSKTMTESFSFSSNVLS

The first experiment concerns the target T1, Human NK1 Receptor (Homo sapiens, UniProt P25103).
T1 construct: endogenous in cells; host or cells: Human lymphoma IM9 cells (whole cells)
The experiment can be described thus: In Vitro Human NK1 Receptor Binding Assay ([125I]Bolton-Hunter substance P displacement, IM9 cells). The note with it: Human lymphoma IM9 cells, [125I]Bolton-Hunter substance P (0.05-0.1 nM), 50 min at 21° C.; Table 1; read-out: NK1 binding IC50. Summed up: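 Test compounds competed with 0.05-0.1 nM [125I]Bolton-Hunter substance P for binding to intact IM9 cells over 50 min at 21° C, pH 7.4 buffer with MnCl2 and peptidase inhibitors. […] [Sar9, Met(O2)11] substance P gave non-specific binding. Bound counts were measured after filtration and fitted iteratively.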
What is called IC50 is the concentration at which inhibition is half-maximal. As for `C[C@H](NC(=O)[C@@H](Cc1c[nH]c2ccccc12)NCc1cccc([N+](=O)[O-])c1)c1ccccc1` (relative stereo) [Example 15, 3-(1H-Indol-3-yl)-2-(3-nitro-benzylamino)-N-(1-phenyl-ethyl)-propionamide, [R-(R*,S*)]], the half-inhibitory concentration (IC50) is above 10000 nM.

Still in this experiment, the particulars now being: Human lymphoma IM9 cells, [125I]Bolton-Hunter substance P; Table 3, array-synthesis products; read-out: IC50 (nM) hNK1.
`O=C(NCCN1CCCC1)C(Cc1c[nH]c2ccccc12)NCc1cc2ccccc2o1` (centres unmarked) [Example 222, 2-[(Benzofuran-2-ylmethyl)-amino]-3-(1H-indol-3-yl)-N-(2-pyrrolidin-1-yl-ethyl)-propionamide]: the IC50 was above 10000 nM.

Regarding `CC(C)(NC(=O)C(Cc1c[nH]c2ccccc12)NCc1cc2ccccc2o1)c1ccccc1` (centres unmarked) [Example 265, 2-[(Benzofuran-2-ylmethyl)-amino]-3-(1H-indol-3-yl)-N-(1-methyl-1-phenyl-ethyl)-propionamide], the IC50 worked out at 328 nM.

Turning to `Nc1ccc(CNC(=O)C(Cc2c[nH]c3ccccc23)NCc2cc3ccccc3o2)cc1` (centres unmarked) [Example 306, N-(4-Amino-benzyl)-2-[(benzofuran-2-ylmethyl)-amino]-3-(1H-indol-3-yl)-propionamide], the IC50 stood at 639 nM.

As for `O=C(NCc1ccc([N+](=O)[O-])cc1)C(Cc1c[nH]c2ccccc12)NCc1cc2ccccc2o1` (centres unmarked) [Example 221, 2-[(Benzofuran-2-ylmethyl)-amino]-3-(1H-indol-3-yl)-N-(4-nitro-benzyl)-propionamide], the IC50 was 23 nM.

On to `CCC(NC(=O)C(Cc1c[nH]c2ccccc12)NCc1cc2ccccc2o1)c1cccs1` (centres unmarked) [Example 196, 2-[(Benzofuran-2-ylmethyl)-amino]-3-(1H-indol-3-yl)-N-(1-thiophen-2-yl-propyl)-propionamide], for which the IC50 stood at 92 nM.

On to `O=C(NCc1cccnc1)C(Cc1c[nH]c2ccccc12)NCc1cc2ccccc2o1` (centres unmarked) [Example 231, 2-[(Benzofuran-2-ylmethyl)-amino]-3-(1H-indol-3-yl)-N-pyridin-3-ylmethyl-propionamide], for which the IC50 is 790 nM.

For the compound `O=C(NCc1cccc(Br)c1)C(Cc1c[nH]c2ccccc12)NCc1cc2ccccc2o1` (centres unmarked) [Example 219], the IC50 came to 31 nM.

On to `O=C(NCCCc1ccccc1)C(Cc1c[nH]c2ccccc12)NCc1cc2ccccc2o1` (centres unmarked) [Example 278, 2-[(Benzofuran-2-ylmethyl)-amino]-3-(1H-indol-3-yl)-N-(3-phenyl-propyl)-propionamide], for which the IC50 worked out at 2380 nM.

Staying with this experiment, now noted: Table 4; [125I]Bolton-Hunter substance P displacement, human IM9 cells; read-out: IC50 (nM) hNK1.
For the compound `CC(NC(=O)C(C)(Cc1c[nH]c2ccccc12)NCc1cnc2ccccc2c1)c1ccccc1` (centres unmarked) [compound 315, 3-(1H-Indol-3-yl)-2-methylN-(1-phenyl-ethyl)-2-[(quinolin-3-ylmethyl)-amino]-propionamide], the IC50 stood at 1070 nM.

As to `CC(NC(=O)C(C)(Cc1c[nH]c2ccccc12)NCc1ccoc1)c1ccccc1` (centres unmarked) [compound 312, 2-[(Furan-3-ylmethyl)-amino]-3-(1H-indol-3-yl)-2-methyl-N-(1-phenyl-ethyl)-propionamide], the concentration for half-maximal inhibition (IC50) was found to be 1820 nM.

In the case of `CC(NC(=O)C(C)(Cc1c[nH]c2ccccc12)NCc1ccccc1Sc1ccc(Cl)cc1)c1ccccc1` (centres unmarked) [compound 350, 2-[2-(4-Chloro-phenylsulfanyl)-benzylamino]-3-(1H-indol-3-yl)-2-methyl-N-(1-phenyl-ethyl)-propionamide], the IC50 is above 10000 nM.

The same experiment, now with this note: Table 5; [125I]Bolton-Hunter substance P displacement, human IM9 cells; read-out: IC50 (nM) hNK1.
For the compound `CC(NC(=O)C(Cc1c[nH]c2ccccc12)NCc1ccoc1)c1ccccc1` (centres unmarked) [compound 402], the IC50 is 881 nM.

For `CC(NC(=O)C(Cc1c[nH]c2ccccc12)NCC=Cc1ccc2c(c1)OCO2)c1ccccc1` (centres unmarked) [compound 377], the IC50 was 593 nM.

On to `CC(NC(=O)C(Cc1c[nH]c2ccccc12)NCc1ccco1)c1ccccc1` (centres unmarked) [compound 405], for which the IC50 was found to be 429 nM.

For the compound `CC(NC(=O)C(Cc1c[nH]c2ccccc12)NCC(=Cc1ccccc1)c1ccccc1)c1ccccc1` (centres unmarked) [compound 376], the IC50 was above 10000 nM.

For the compound `CC(NC(=O)C(Cc1c[nH]c2ccccc12)NCc1ccc(-c2ccc([N+](=O)[O-])cc2)o1)c1ccccc1` (centres unmarked) [compound 390], the IC50 turned out to be 50 nM.

Still in this experiment, the particulars now being: human NK1 receptor, IM9 cells, [125I]Bolton-Hunter substance P; read-out: IC50 (nM) hNK1.
Take `CC(Cc1c[nH]c2ccccc12)(NCc1cc2ccccc2o1)C(=O)NCc1cccc(F)c1` (centres unmarked) [compound 166, 2-[(Benzofuran-2-ylmethyl)-amino]-N-(3-fluoro-benzyl)-3-(1H-indol-3-yl)-2-methyl-propionamide]: the IC50 is 37 nM.

Turning to `CC(Cc1c[nH]c2ccccc12)(NCc1cc2ccccc2o1)C(=O)NCc1cc(C(F)(F)F)cc(C(F)(F)F)c1` (centres unmarked) [compound 51, 2-[(Benzofuran-2-ylmethyl)-amino]-N-(3,5-bis-trifluoromethyl-benzyl)-3-(1H-indol-3-yl)-2-methyl-propionamide], the IC50 was found to be 179 nM.

As for `CC(Cc1c[nH]c2ccccc12)(NCc1cc2ccccc2o1)C(=O)NCc1ccccn1` (centres unmarked) [compound 23, 2-[(Benzofuran-2-ylmethyl)-amino]-3 (1H-indol-3-yl)-2-methyl-N-pyridin-2 ylmethyl-propionamide], the IC50 stood at 1280 nM.

For the compound `CC(Cc1c[nH]c2ccccc12)(NCc1cc2ccccc2o1)C(=O)NCCc1c[nH]cn1` (centres unmarked) [compound 97, 2-[(Benzofuran-2-ylmethyl)-amino]-N-[2-(1H-imidazol-4-yl)-ethyl]-3-(1H-indol-3-yl)-2-methyl-propionamide], the IC50 was above 10000 nM.

For the compound `CC(Cc1c[nH]c2ccccc12)(NCc1cc2ccccc2o1)C(=O)NCc1ccc(F)cc1` (centres unmarked) [compound 61, 2-[(Benzofuran-2-ylmethyl)-amino]-N-(4-fluoro-benzyl)-3-(1H-indol-3-yl)-2-methyl-propionamide], the IC50 was found to be 61 nM.

As for `CC(Cc1c[nH]c2ccccc12)(NCc1cc2ccccc2o1)C(=O)NCCc1ccc(O)cc1` (centres unmarked) [compound 143, 2-[(Benzofuran-2-ylmethyl)-amino]-N-[2-(4-hydroxy-phenyl)-ethyl]-3-(1H-indol-3-yl)-2-methyl-propionamide], the IC50 was above 10000 nM.

For `CC(NC(=O)C(C)(Cc1c[nH]c2ccccc12)NCc1cc2ccccc2o1)c1cccc2ccccc12` (centres unmarked) [compound 31, 2-[(Benzofuran-2-ylmethyl)amino]-3-(1H-indol-3-yl)-2-methyl-N-(1-naphthalen-1-yl-ethyl)-propionamide], the IC50 is above 10000 nM.

On to `CC(Cc1c[nH]c2ccccc12)(NCc1cc2ccccc2o1)C(=O)NCC1CCNC1` (centres unmarked) [compound 154, 2-[(Benzofuran-2-ylmethyl)-amino]-3-(1H-indol-3-yl)-2-methyl-N-pyrrolidin-3-ylmethyl-propionamide], for which the IC50 is above 10000 nM.

`CC(Cc1c[nH]c2ccccc12)(NCc1cc2ccccc2o1)C(=O)NC1(CO)CCCC1` (centres unmarked) [compound 144, 2-[(Benzofuran-2-ylmethyl)-amino]-N-(1-hydroxymethyl-cyclopentyl)-3-(1H-indol-3-yl)-2-methyl-propionamide]: the concentration for half-maximal inhibition (IC50) is above 10000 nM.

Take `CC(Cc1c[nH]c2ccccc12)(NCc1cc2ccccc2o1)C(=O)NC1(c2cccs2)CCCCC1` (centres unmarked) [compound 160, 2-[(Benzofuran-2-ylmethyl)-amino]-3-(1H-indol-3-yl)-2-methyl-N-(1-thiophen-2-yl-cyclohexyl)-propionamide]: the IC50 was above 10000 nM.

`CC(Cc1c[nH]c2ccccc12)(NCc1cc2ccccc2o1)C(=O)NCCCn1ccnc1` (centres unmarked) [compound 134, 2-[(Benzofuran-2-ylmethyl)-amino]-N-(3-imidazol-1-yl-propyl)-3-(1H-indol-3-yl)-2-methyl-propionamide]: the IC50 came to 5370 nM.

Consider `COc1cc(C(O)CNC(=O)C(C)(Cc2c[nH]c3ccccc23)NCc2cc3ccccc3o2)ccc1O` (centres unmarked) [compound 153, 2-[(Benzofuran-2-ylmethyl)-amino]-N-[2-hydroxy-2-(4-hydroxy-3-methoxy-phenyl)-ethyl]-3-(1H-indol-3-yl)-2-methyl-propionamide], for which the IC50 is 3550 nM.

Turning to `CN(C)CCNC(=O)C(C)(Cc1c[nH]c2ccccc12)NCc1cc2ccccc2o1` (centres unmarked) [compound 83, 2-[(Benzofuran-2-ylmethyl)-amino]-N-(2-dimethylamino-ethyl)-3-(1H-indol-3-yl)-2-methyl-propionamide], the IC50 was 3520 nM.

Regarding `CC1CCCC(C)N1CCCCNC(=O)C(C)(Cc1c[nH]c2ccccc12)NCc1cc2ccccc2o1` (centres unmarked) [compound 88, 2-[(Benzofuran-2-ylmethyl)-amino]-N-[4-(2,6-dimethyl-piperidin-1-yl)-butyl]-3-(1H-indol-3-yl)-2-methyl-propionamide], the IC50 was above 10000 nM.

On to `CC(Cc1c[nH]c2ccccc12)(NCc1cc2ccccc2o1)C(=O)NCc1ccc(Cl)cc1Cl` (centres unmarked) [compound 46, 2-[(Benzofuran-2-ylmethyl)-amino]-N-(2,4-dichloro-benzyl)-3-(1H-indol-3-yl)-2-methyl-propionamide], for which the IC50 came out at 1560 nM.

`CC(Cc1c[nH]c2ccccc12)(NCc1cc2ccccc2o1)C(=O)NC(Cc1ccccc1)c1ccccc1` (centres unmarked) [compound 75, 2-[(Benzofuran-2-ylmethyl)-amino]-N-(1,2-diphenyl-ethyl)-3-(1H-indol-3-yl)-2-methyl-propionamide]: the IC50 was above 10000 nM.

On to `CC(NC(=O)C(C)(Cc1c[nH]c2ccccc12)NCc1cc2ccccc2o1)c1ccc(N)cc1` (centres unmarked) [compound 38, N-[1-(4-Amino-phenyl)-ethyl]-2-[(benzofuran-2-ylmethyl)-amino]-3-(1H-indol-3-yl)-2-methyl-propionamide], for which the IC50 is 141 nM.

With `CC(Cc1c[nH]c2ccccc12)(NCc1cc2ccccc2o1)C(=O)NCc1cccc(C(F)(F)F)c1` (centres unmarked) [compound 74, 2-[(Benzofuran-2-ylmethyl)-amino]-3-(1H-indol-3-yl)-2-methyl-N-(3-trifluoromethyl-benzyl)-propionamide], the IC50 was 12 nM.
